15 molecules from US12171229B2, “Heteroaryl-triazole and heteroaryl-tetrazole compounds as pesticides” (BAYER AKTIENGESELLSCHAFT, priority 2018, dated 2024) can be followed below.

Common to all, as to type: in vivo
One test concerns Boophilus microplus. Nature of the test: Boophilus microplus injection test. Particulars: Rhipicephalus microplus, 168 h; 20 μg/animal injected into the abdomen; adult engorged female ticks; egg deposition after 7 days; read-out: efficacy (infertile eggs). How it is done:
Boophilus Microplus—Injection Test Solvent: dimethyl sulfoxide To produce a suitable preparation of active compound, 10 mg of active compound are dissolved in 0.5 ml solvent, and the concentrate is diluted with solvent to the desired concentration. Five adult engorged female ticks (Boophilus microplus) are injected with 1 μl compound solution into the abdomen. The ticks are transferred into replica plates and incubated in a climate chamber. After 7 days egg deposition of fertile eggs is monitored. Eggs where fertility is not visible are stored in a climate chamber till hatching after about 42 days. An efficacy of 100% means all eggs are infertile; 0% means all eggs are fertile.

Another test relates to Diabrotica balteata. Kind of test: Diabrotica balteata spray test. Particulars: Diabrotica balteata, in Triticum aestivum, 168 h, after 7 days, larvae on wheat seeds, read-out: efficacy (seedlings grown up); for pest or weed control at 80 µg/disc, 250 g/ha: 80 μg/well (=250 g/ha); for pest or weed control at 160 µg/disc, 500 g/ha: 160 μg/well (=500 g/ha). How it is done: Diabrotica balteata—Spray Test [table] To produce a suitable preparation of active compound, 1 part by weight of active compound is mixed with the stated amount of solvent, and the concentrate is diluted with water, containing an emulsifier concentration of 1000 ppm, to the desired concentration. Further test concentrations are prepared by dilution with emulsifier containing water. Soaked wheat seeds (Triticum aestivum) are placed in a multiple well plate filled with agar and some water and are incubated for 1 day to germinate (5 seeds per well). The germinated wheat seeds are sprayed with a test solution containing the desired concentration of the active ingredient. Afterwards each unit is infected with 10-20 larvae of the banded cucumber beetle (Diabrotica balteata). After 7 days efficacy in % is determined. 100% means all the seedlings have grown up like in the untreated, uninfected control; 0% means none of the seedlings have grown.

A further test relates to Ctenocephalides felis. Nature of the test: Ctenocephalides felis oral test. Particulars: 48 h, 100 ppm in cattle blood, after 2 days, adult unfed cat fleas. How it is done: Ctenocephalides Felis—Oral Test
Solvent: dimethyl sulfoxide
To produce a suitable preparation of active compound, 10 mg of active compound are dissolved in 0.5 ml solvent, and the concentrate is diluted with cattle blood to the desired concentration.
Approximately 20 adult unfed cat fleas (Ctenocephalides felis) are placed in flea chambers. The blood chamber, sealed with parafilm on the bottom, are filled with cattle blood supplied with compound solution and placed on the gauze covered top of the flea chamber, so that the fleas are able to suck the blood. The blood chamber is heated to 37° C. whereas the flea chamber is kept at room temperature.
After 2 days mortality in % is determined. 100% means all the fleas have been killed; 0% means none of the fleas have been killed.

The next test deals with Spodoptera frugiperda. Kind of test: Spodoptera frugiperda spray test. Particulars: 168 h, after 7 days, larvae on maize leaf sections. How it is done: Spodoptera frugiperda—Spray Test
To produce a suitable preparation of active compound, 1 part by weight of active compound is mixed with the stated amount of solvents and is diluted with water, containing an emulsifier concentration of 1000 ppm, to the desired concentration. Further test concentrations are prepared by dilution with emulsifier containing water.
Maize (Zea mays) leaf sections are sprayed with a preparation of the active ingredient of the desired concentration. Once dry, the leaf sections are infested with fall armyworm larvae (Spodoptera frugiperda).
After 7 days mortality in % is determined. 100% means all caterpillars have been killed and 0% means none of the caterpillars have been killed.

The next test concerns Myzus persicae. Nature of the test: Myzus persicae oral test. Particulars: 120 h, 4 ppm, after 5 days. How it is done: Solvent: 100 parts by weight acetone
To produce a suitable preparation of active compound, 1 part by weight of active compound is mixed with the stated amount of solvent, and the concentrate is diluted with water to the desired concentration.
50 μl compound solution is filled in microtiter plates and 150 μl IPL41 insect medium (33%+15% sugar) is added to obtain a total volume of 200 μl per well. Afterwards the plates are sealed with parafilm through which a mixed population of the green peach aphid (Myzus persicae) can suck on the compound preparation.
After 5 days mortality in % is determined. 100% means all aphids have been killed and 0% means none of the aphids have been killed.

The test system of the next test is Nezara viridula. Nature of the test: Nezara viridula spray test. The following applies: 96 h, after 4 days, larvae on barley plants. As for the experimental part: Nezara viridula—Spray Test
To produce a suitable preparation of active compound, 1 part by weight of active compound is mixed with the stated amount of solvent, and the concentrate is diluted with water, containing an emulsifier concentration of 1000 ppm, to the desired concentration. Further test concentrations are prepared by dilution with emulsifier containing water.
Barley plants (Hordeum vulgare) infested with larvae of the southern green stink bug (Nezara viridula) are sprayed with a test solution containing the desired concentration of the active ingredient.
After 4 days mortality in % is determined. 100% means all the stink bugs have been killed: 0% means none of the stink bugs have been killed.

Each structure is given as a SMILES string.

For the molecule `C[C@H](NC(=O)c1cc(Cl)cc(C(F)(F)F)c1)c1ncnn1-c1ccc(OC(F)(F)F)cn1` [Example I-016], in the test with Boophilus microplus, the pest or weed control at 0.02 mg is 100%. For the same molecule, in the test on Diabrotica balteata, the pest or weed control at 80 µg/disc, 250 g/ha is 100% and the pest or weed control at 160 µg/disc, 500 g/ha is 100%. In the test with Ctenocephalides felis, the mortality at 100 ppm came to 100%. Further, in the test with Spodoptera frugiperda, the mortality at 100 g/ha stood at 100% and the mortality at 500 g/ha was 100%.

Regarding `C[C@H](NC(=O)c1cc(Cl)cc(C(F)(F)F)c1)c1ncnn1-c1ccc(S(=O)(=O)C(F)(F)F)cn1` [Example I-027, 3-chloro-5-(trifluoromethyl)-N-[(1S)-1-(1-{5-[(trifluoromethyl)sulfonyl]pyridin-2-yl}-1H-1,2,4-triazol-5-yl)ethyl]benzamide], the pest or weed control at 0.02 mg in the test with Boophilus microplus came out at 100%. In the test with Diabrotica balteata, the pest or weed control at 80 µg/disc, 250 g/ha stood at 100% and the pest or weed control at 160 µg/disc, 500 g/ha came out at 100%. Besides, in the test with Ctenocephalides felis, the mortality at 100 ppm came out at 100%. In the test on Spodoptera frugiperda, this molecule gave a mortality at 100 g/ha of 100% and a mortality at 500 g/ha of 100%.

On to `C[C@H](NC(=O)c1cc(Cl)cc(C(F)(F)F)c1)c1ncnn1-c1cn(C)nc1C(F)F` [Example I-032], for which the pest or weed control at 0.02 mg in the test with Boophilus microplus was 100%. For the same molecule, in the test on Diabrotica balteata, the pest or weed control at 80 µg/disc, 250 g/ha was 100% and the pest or weed control at 160 µg/disc, 500 g/ha stood at 100%. Further, in the test with Ctenocephalides felis, the mortality at 100 ppm was determined as 100%.

For the molecule `C[C@H](NC(=O)c1cc(Cl)cc(C(F)(F)F)c1)c1ncnn1-c1ccc(NC(=O)c2ccc(F)cc2)cn1` [Example I-036], the pest or weed control at 0.02 mg with Boophilus microplus is 100%. Besides, in the test with Diabrotica balteata, the pest or weed control at 80 µg/disc, 250 g/ha turned out to be 100% and the pest or weed control at 160 µg/disc, 500 g/ha stood at 100%. The mortality at 100 ppm in the test on Ctenocephalides felis was 100%. In addition, in the test on Spodoptera frugiperda, the mortality at 100 g/ha was found to be 100% and the mortality at 500 g/ha amounted to 100%. The mortality at 4 ppm in the test on Myzus persicae was found to be 100%.

Regarding `Cc1cc(C(=O)N[C@@H](C)c2ncnn2-c2ccc(C#N)cn2)cc(C(F)(F)F)c1` [Example I-040], the pest or weed control at 0.02 mg in the test on Boophilus microplus worked out at 100%. Also, in the test on Diabrotica balteata, the pest or weed control at 80 µg/disc, 250 g/ha turned out to be 100% and the pest or weed control at 160 µg/disc, 500 g/ha was 100%. This molecule came in with a mortality at 100 ppm in the test on Ctenocephalides felis of 100%. In the test with Spodoptera frugiperda, this molecule displayed a mortality at 100 g/ha of 100% and a mortality at 500 g/ha of 100%. Besides, in the test on Myzus persicae, the mortality at 4 ppm was 100%.

For the molecule `C[C@H](NC(=O)c1cc(Cl)cc(C(F)(F)F)c1)c1ncnn1-c1cn(C)nc1C(F)(F)F` [Example I-044], in the test with Boophilus microplus, the pest or weed control at 0.02 mg was found to be 100%. Also, in the test with Diabrotica balteata, the pest or weed control at 80 µg/disc, 250 g/ha was 100% and the pest or weed control at 160 µg/disc, 500 g/ha came out at 80%. For the same molecule, the mortality at 100 ppm with Ctenocephalides felis came to 100%.

Take `C[C@H](NC(=O)c1cc(Cl)cc(C(F)(F)F)c1)c1ncnn1-c1ccc(-n2ccc(C(F)(F)F)n2)cn1` [Example I-045, 3-chloro-5-(trifluoromethyl)-N-[(1S)-1-(1-{5-[3-(trifluoromethyl)-1H-pyrazol-1-yl]pyridin-2-yl}-1H-1,2,4-triazol-5-yl)ethyl]benzamide]: in the test with Boophilus microplus, the pest or weed control at 0.02 mg came to 100%. Besides, in the test on Diabrotica balteata, the pest or weed control at 80 µg/disc, 250 g/ha amounted to 100% and the pest or weed control at 160 µg/disc, 500 g/ha was determined as 80%. This molecule showed a mortality at 100 ppm in the test with Ctenocephalides felis of 95%. In the test on Spodoptera frugiperda, this molecule yielded a mortality at 100 g/ha of 100% and a mortality at 500 g/ha of 100%.

For `C[C@H](NC(=O)c1cncc(Br)c1)c1ncnn1-c1ccc(C#N)cn1` [Example I-053], the pest or weed control at 0.02 mg in the test with Boophilus microplus amounted to 100%. Also, in the test with Diabrotica balteata, the pest or weed control at 80 µg/disc, 250 g/ha was 100% and the pest or weed control at 160 µg/disc, 500 g/ha worked out at 100%. The molecule also yielded a mortality at 100 ppm with Ctenocephalides felis of 100%. The molecule also registered a mortality at 500 g/ha in the test on Spodoptera frugiperda of 100%.

As for `C[C@H](NC(=O)c1cc(Cl)cc(C(F)(F)F)c1)c1ncnn1-c1nc2ccccc2o1` [Example I-057], in the test on Boophilus microplus, the pest or weed control at 0.02 mg is 80%. Moreover, in the test on Diabrotica balteata, the pest or weed control at 80 µg/disc, 250 g/ha amounted to 100% and the pest or weed control at 160 µg/disc, 500 g/ha was determined as 80%. This molecule also displayed a mortality at 100 ppm in the test with Ctenocephalides felis of 90%.

As for `C[C@H](NC(=O)c1cc(Cl)cc(C(F)(F)F)c1)c1ncnn1-c1ccc(S(C)(=O)=O)cn1` [Example I-062], the pest or weed control at 0.02 mg in the test with Boophilus microplus is 100%. This molecule gave a mortality at 500 g/ha in the test with Nezara viridula of 100%. Also, in the test with Diabrotica balteata, the pest or weed control at 80 µg/disc, 250 g/ha stood at 100% and the pest or weed control at 160 µg/disc, 500 g/ha turned out to be 100%. Besides, the mortality at 100 ppm with Ctenocephalides felis amounted to 100%. In the test on Spodoptera frugiperda, this molecule came in with a mortality at 100 g/ha of 100% and a mortality at 500 g/ha of 100%.

For `C[C@H](NC(=O)c1cc(Cl)cc(C(F)(F)F)c1)c1ncnn1-c1ccc(NC(=O)C(F)(F)F)cn1` [Example I-072], in the test on Diabrotica balteata, the pest or weed control at 80 µg/disc, 250 g/ha turned out to be 100% and the pest or weed control at 160 µg/disc, 500 g/ha was 100%. In the test on Spodoptera frugiperda, this molecule showed a mortality at 100 g/ha of 83% and a mortality at 500 g/ha of 100%. For the same molecule, the mortality at 4 ppm in the test on Myzus persicae was determined as 90%.

In the test with Nezara viridula, `C[C@H](NC(=O)c1cc(Cl)cc(C(F)(F)F)c1)c1ncnn1-c1ccc(C(N)=O)cn1` [Example I-100] showed a mortality at 500 g/ha of 100%. Moreover, in the test with Diabrotica balteata, the pest or weed control at 80 µg/disc, 250 g/ha was determined as 100% and the pest or weed control at 160 µg/disc, 500 g/ha was 100%. The mortality at 100 ppm in the test with Ctenocephalides felis was determined as 100%. Also, in the test with Spodoptera frugiperda, the mortality at 100 g/ha came out at 100% and the mortality at 500 g/ha amounted to 100%. The mortality at 4 ppm in the test with Myzus persicae worked out at 100%.

In the case of `C[C@H](NC(=O)c1cc(Cl)cc(OC(F)(F)F)c1)c1ncnn1-c1ccc(N)cn1` [Example I-101], the mortality at 500 g/ha with Nezara viridula and in the test with Spodoptera frugiperda was 100% each time. In the test with Diabrotica balteata, the pest or weed control at 80 µg/disc, 250 g/ha was 100%. For the same molecule, the pest or weed control at 160 µg/disc, 500 g/ha with Diabrotica balteata came to 100%. This molecule also came in with a mortality at 4 ppm with Myzus persicae of 100%.

In the test with Nezara viridula, `C[C@H](NC(=O)c1cc(C(F)(F)F)cc(C(F)(F)F)c1)c1ncnn1-c1nccs1` [Example I-103] came in with a mortality at 100 g/ha of 100% and a mortality at 500 g/ha of 100%. In the test with Diabrotica balteata, the pest or weed control at 80 µg/disc, 250 g/ha came to 100% and the pest or weed control at 160 µg/disc, 500 g/ha was determined as 100%. In the test with Spodoptera frugiperda, this molecule showed a mortality at 100 g/ha of 100% and a mortality at 500 g/ha of 100%. Further, the mortality at 4 ppm in the test on Myzus persicae was determined as 100%.

`C[C@H](NC(=O)c1cc(Cl)cc(C(F)(F)F)c1)c1ncnn1-c1ccc(C(=O)NC2(C#N)CC2)cn1` [Example I-112] had a mortality at 100 g/ha in the test with Nezara viridula of 100%. Moreover, the mortality at 500 g/ha is 100% in the test with Nezara viridula and 83% with Spodoptera frugiperda. The pest or weed control at 160 µg/disc, 500 g/ha in the test with Diabrotica balteata is 100%. In the test with Myzus persicae, the mortality at 4 ppm is 90%.
